Tested on: 192522-019-R-J2-PDC complex tumor spheroid viability
Assay: Anticancer human tumor 192522-019-R-J2-PDC patient-derived colon adenocarcinoma cell line growth inhibition [POLQ]
Settings: for IC50: curve of first compound; for viability, T/C: stronger effect = lower value
In short: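 PDC + HUVEC + MSC complex spheroids; POLQ inhibitors ± partner drugs; top conc. at/near clinical Cmax, else 10 microM (SN-38 1 microM), half-log dilutions; 37 degrees C, 5% CO2.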

[1] = second compound 0.0316 µM, first compound 0.0316 µM
[2] = second compound 0.0316 µM, first compound 0.1 µM
[3] = second compound 0.0316 µM, first compound 0.316 µM
[4] = second compound 0.0316 µM, first compound 1 µM
[5] = second compound 0.0316 µM, first compound 3.16 µM
[6] = second compound 0.0316 µM, first compound 10 µM
[7] = second compound 0.1 µM, first compound 0.0316 µM
[8] = second compound 0.1 µM, first compound 0.1 µM
[9] = second compound 0.1 µM, first compound 0.316 µM
[10] = second compound 0.1 µM, first compound 1 µM
[11] = second compound 0.1 µM, first compound 3.16 µM
[12] = second compound 0.1 µM, first compound 10 µM
[13] = second compound 0.316 µM, first compound 0.0316 µM
[14] = second compound 0.316 µM, first compound 0.1 µM
[15] = second compound 0.316 µM, first compound 0.316 µM
[16] = second compound 0.316 µM, first compound 1 µM
[17] = second compound 0.316 µM, first compound 3.16 µM
[18] = second compound 0.316 µM, first compound 10 µM
[19] = second compound 1 µM, first compound 0.0316 µM
[20] = second compound 1 µM, first compound 0.1 µM
[21] = second compound 1 µM, first compound 0.316 µM
[22] = second compound 1 µM, first compound 1 µM
[23] = second compound 1 µM, first compound 3.16 µM
[24] = second compound 1 µM, first compound 10 µM
[25] = second compound 3.16 µM, first compound 0.0316 µM
[26] = second compound 3.16 µM, first compound 0.1 µM
[27] = second compound 3.16 µM, first compound 0.316 µM
[28] = second compound 3.16 µM, first compound 1 µM
[29] = second compound 3.16 µM, first compound 3.16 µM
[30] = second compound 3.16 µM, first compound 10 µM
[31] = second compound 10 µM, first compound 0.0316 µM
[32] = second compound 10 µM, first compound 0.1 µM
[33] = second compound 10 µM, first compound 0.316 µM
[34] = second compound 10 µM, first compound 1 µM
[35] = second compound 10 µM, first compound 3.16 µM
[36] = second compound 10 µM, first compound 10 µM
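Note: spheroids exposed to drugs for seven days before reading.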
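Throughout, for viability, T/C: 100% = DMSO vehicle control viability in luminescence.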

`CNCc1ccc(-c2[nH]c3cc(F)cc4c3c2CCNC4=O)cc1` + Cc1cccc(N(C)C(=O)C2C(O)CCN2c2nc(C)cc(C(F)(F)F)c2C#N)c1 showed an IC50 (second compound 0.0316 µM) of over 10 µM, an IC50 (second compound 0.1 µM) of over 10 µM and an IC50 (second compound 0.316 µM) of over 10 µM. For the same molecule, the IC50 (second compound 1 µM) was over 10 µM, the IC50 (second compound 3.16 µM) was over 10 µM and the IC50 (second compound 10 µM) was over 10 µM. It also gave a viability, T/C [1] of 109%, a viability, T/C [2] of 96.2% and a viability, T/C [3] of 96.8%. The viability, T/C [4] was 100%, the viability, T/C [5] was 121% and the viability, T/C [6] was 91.2%. It also gave a viability, T/C [7] of 103%, a viability, T/C [8] of 104% and a viability, T/C [9] of 112%. For the same molecule, the viability, T/C [10] was 108%, the viability, T/C [11] was 101% and the viability, T/C [12] was 111%. For the same molecule, the viability, T/C [13] was 101%, the viability, T/C [14] was 113% and the viability, T/C [15] was 111%. For the same molecule, the viability, T/C [16] was 103%, the viability, T/C [17] was 106% and the viability, T/C [18] was 102%. For the same molecule, the viability, T/C [19] was 108%, the viability, T/C [20] was 115% and the viability, T/C [21] was 103%. For the same molecule, the viability, T/C [22] was 112%, the viability, T/C [23] was 104% and the viability, T/C [24] was 110%. It also gave a viability, T/C [25] of 113%, a viability, T/C [26] of 113% and a viability, T/C [27] of 102%. For the same molecule, the viability, T/C [28] was 102%, the viability, T/C [29] was 122% and the viability, T/C [30] was 110%. It also gave a viability, T/C [31] of 107%, a viability, T/C [32] of 106% and a viability, T/C [33] of 112%. It also gave a viability, T/C [34] of 107%, a viability, T/C [35] of 113% and a viability, T/C [36] of 108%.
Work on `COc1cc(C2c3cc4c(cc3C(OC3OC5COC(C)OC5C(O)C3O)C3COC(=O)C23)OCO4)cc(OC)c1O` (stereo unspecified) + Nc1ccc(C#CCN(C(=O)Cc2ncc(C(F)(F)F)cc2C(F)(F)F)c2ccc(F)cc2)nn1 yielded an IC50 (second compound 0.0316 µM) of over 10 µM, an IC50 (second compound 0.1 µM) of over 10 µM and an IC50 (second compound 0.316 µM) of over 10 µM. It also gave an IC50 (second compound 1 µM) of over 10 µM, an IC50 (second compound 3.16 µM) of over 10 µM and an IC50 (second compound 10 µM) of over 10 µM. For the same molecule, the viability, T/C [1] was 105%, the viability, T/C [2] was 98.2% and the viability, T/C [3] was 86.9%. It also gave a viability, T/C [4] of 83.2%, a viability, T/C [5] of 68.9% and a viability, T/C [6] of 77.8%. It also gave a viability, T/C [7] of 110%, a viability, T/C [8] of 92.2% and a viability, T/C [9] of 97.5%. The viability, T/C [10] was 93.4%, the viability, T/C [11] was 65.4% and the viability, T/C [12] was 80.4%. It also gave a viability, T/C [13] of 106%, a viability, T/C [14] of 100% and a viability, T/C [15] of 96.4%. It also gave a viability, T/C [16] of 87%, a viability, T/C [17] of 67% and a viability, T/C [18] of 80%. For the same molecule, the viability, T/C [19] was 100%, the viability, T/C [20] was 91.9% and the viability, T/C [21] was 98.2%. The viability, T/C [22] was 85.1%, the viability, T/C [23] was 73.9% and the viability, T/C [24] was 75%. The viability, T/C [25] was 109%, the viability, T/C [26] was 96.4% and the viability, T/C [27] was 95.9%. The viability, T/C [28] was 85.2%, the viability, T/C [29] was 72.7% and the viability, T/C [30] was 76.1%. It also gave a viability, T/C [31] of 104%, a viability, T/C [32] of 101% and a viability, T/C [33] of 96.9%. It also gave a viability, T/C [34] of 78.6%, a viability, T/C [35] of 79.7% and a viability, T/C [36] of 72.2%.
Work on `Cn1ncnc1[C@H]1c2n[nH]c(=O)c3cc(F)cc(c23)N[C@@H]1c1ccc(F)cc1` + Nc1ccc(C#CCN(C(=O)Cc2ncc(C(F)(F)F)cc2C(F)(F)F)c2ccc(F)cc2)nn1 yielded an IC50 (second compound 0.0316 µM) of over 0.1 µM, an IC50 (second compound 0.1 µM) of over 0.1 µM and an IC50 (second compound 0.316 µM) of over 0.1 µM. For the same molecule, the IC50 (second compound 1 µM) was over 0.1 µM, the IC50 (second compound 3.16 µM) was over 0.1 µM and the IC50 (second compound 10 µM) was over 0.1 µM. For the same molecule, the viability, T/C (second compound 0.0316 µM, first compound 0.000316 µM) was 101%, the viability, T/C (second compound 0.0316 µM, first compound 0.001 µM) was 108% and the viability, T/C (second compound 0.0316 µM, first compound 0.00316 µM) was 101%. For the same molecule, the viability, T/C (second compound 0.0316 µM, first compound 0.01 µM) was 104%, the viability, T/C [1] was 99.4% and the viability, T/C [2] was 98.9%. For the same molecule, the viability, T/C (second compound 0.1 µM, first compound 0.000316 µM) was 108%, the viability, T/C (second compound 0.1 µM, first compound 0.001 µM) was 100% and the viability, T/C (second compound 0.1 µM, first compound 0.00316 µM) was 107%. It also gave a viability, T/C (second compound 0.1 µM, first compound 0.01 µM) of 110%, a viability, T/C [7] of 113% and a viability, T/C [8] of 91.4%. The viability, T/C (second compound 0.316 µM, first compound 0.000316 µM) was 107%, the viability, T/C (second compound 0.316 µM, first compound 0.001 µM) was 95.4% and the viability, T/C (second compound 0.316 µM, first compound 0.00316 µM) was 97.9%. It also gave a viability, T/C (second compound 0.316 µM, first compound 0.01 µM) of 108%, a viability, T/C [13] of 111% and a viability, T/C [14] of 102%. It also gave a viability, T/C (second compound 1 µM, first compound 0.000316 µM) of 119%, a viability, T/C (second compound 1 µM, first compound 0.001 µM) of 109% and a viability, T/C (second compound 1 µM, first compound 0.00316 µM) of 102%. It also gave a viability, T/C (second compound 1 µM, first compound 0.01 µM) of 99.9%, a viability, T/C [19] of 105% and a viability, T/C [20] of 114%. It also gave a viability, T/C (second compound 3.16 µM, first compound 0.000316 µM) of 102%, a viability, T/C (second compound 3.16 µM, first compound 0.001 µM) of 107% and a viability, T/C (second compound 3.16 µM, first compound 0.00316 µM) of 109%. For the same molecule, the viability, T/C (second compound 3.16 µM, first compound 0.01 µM) was 106%, the viability, T/C [25] was 105% and the viability, T/C [26] was 104%. It also gave a viability, T/C (second compound 10 µM, first compound 0.000316 µM) of 108%, a viability, T/C (second compound 10 µM, first compound 0.001 µM) of 114% and a viability, T/C (second compound 10 µM, first compound 0.00316 µM) of 109%. For the same molecule, the viability, T/C (second compound 10 µM, first compound 0.01 µM) was 99.2%, the viability, T/C [31] was 99.2% and the viability, T/C [32] was 107%.

Source: PubChem BioAssay AID1963850 (Molecular Pharmacology Branch, DTP, NCI, 2024)
